Measurements from patent US20120095012A1, “TOLUIDINE SULFONAMIDES AND THEIR USE” (Elara Pharmaceuticals GmbH, priority 2008, published 2012).
pEC50: −log10 of the molar value.

How the values were obtained:
[1] = system: MCF-7 human breast adenocarcinoma cells; HRE-bla HCT116 cell line (colorectal carcinoma); experiment: Cell proliferation assay (ATPlite luminescence); type: cell-based; settings: Homo sapiens, ATPlite readout, cell line not given
Experimental: MCF-7 human breast adenocarcinoma cells were obtained from ATCC (LGC Promochem). The CellSensor® HRE-bla HCT116 cell line (colorectal carcinoma) was obtained from Invitrogen.
Cells were grown under humidified 95% air, 5% CO2 at 37° C. in Dulbecco's modified Eagle's medium (DMEM: MCF-7) or McCoy's 5A medium (HRE-bla HCT116) supplemented with 10% fetal bovine serum (FBS), 100 U/ml penicillin and 100 μg/ml streptomycin, 2 mM L-glutamine, and blasticidin at 5 μg/ml as a selection marker (for the HRE-bla HCT116 cell line only).
Cell proliferation experiments were carried out in 96-well tissue culture plates with seeding of 2000 cells/well in 100 μl of the relevant medium. Cells were subsequently incubated under the conditions mentioned for 24 h prior to addition of compounds.
To determine the degree of inhibition of cell proliferation, cells were treated with ATPlite solution according to the manufacturer's instructions (PerkinElmer, ATPlite 1-step Luminescence ATP Detection Assay System) and luciferase readout measured on an Envision HTS multilabel plate reader (PerkinElmer) in luminescence mode according to established protocols. Raw data were imported into an ActivityBase database (IDBS, ID Business Solutions) and EC50 values calculated using the IDBS program ActivityBase XE.

[2] = target: T1, tubulin (from porcine brain) (Sus scrofa, UniProt P02550+P02554); experiment: Inhibition of in vitro tubulin polymerization (OD 340 nm, 90 min); type: biochemical; settings: final absorbance at 90 min vs vehicle control, read-out: tubulin inhib. (at 10 μM)
T1 construct: prepared in-house from porcine brain using a standard procedure involving cycles of polymerization/de-polymerization; from tissue; host or cells: porcine brain
Experimental: To assess the degree of inhibition of in vitro tubulin polymerization, a tubulin solution (prepared in-house from porcine brain using a standard procedure involving cycles of polymerization/de-polymerization, (see Castoldi & Popov (2003) Protein Expr. Purif. 32(1): 83-88), was incubated with varying concentrations of compounds under polymerizing conditions and kinetic experiments performed to determine the amount of polymerization (as measured by changes in OD at 340 nm) taking place over a 90 min period.
Compound solutions were diluted in double-distilled water to yield final 10× solutions containing 5% DMSO. 5 μl solutions were then added to the wells on a 384-well clear-bottom plate (Corning #3711, Corning Inc.) in preparation for the addition of tubulin. The tubulin solution (19.6 mg/ml, in 80 mM K-PIPES [pH 6.8], 1 mM MgCl2, 1 mM EGTA) was re-suspended to a final concentration of 4 mg/ml with ice cold G-PEM buffer (80 mM PIPES [pH 6.8], 2 mM MgCl2, 0.5 mM EGTA, 10% glycerol, 1 mM GTP) and maintained on ice for at least 1 min. 50 μl was then added to the pre-dispensed compound solutions, the plate orbital shaken on a medium setting for 5s, and the first measurement begun immediately.
Experiments were carried out on a Safire^2 ™ monochromator (Tecan) preset to a stable temperature of 37° C.; the degree of polymerization was determined by measuring the absorbance of the solutions at 340 nm every minute over the 90 min cycle. Reported inhibition values were based on the final absorbance at 90 min and calculated with reference to a vehicle control (0.5% DMSO) using the minimum and maximum signals obtained for this sample.

[3] = system: HIF mediated transcription; experiment: Inhibition of activation of HIF mediated transcription under hypoxic conditions (CellSensor HRE-bla HCT-116 reporter, DFO-induced); type: cell-based; settings: Homo sapiens; HRE-bla HCT-116 reporter cells, deferoxamine-induced hypoxia, 24 h
Experimental: Inhibition of an activated HIF signaling response under chemically-induced hypoxic conditions due to compound treatment was determined using the CellSensor® […] HCT-116 stably transfected reporter cell line from Invitrogen according to the manufacturer's instructions. HIF is a transcriptional factor composed of the constitutively expressed HIF 1β subunit and one of three HIFα subunits (HIF1α, HIF2α, HIF3α). This assay is responsive towards HIFα activity in general. In one example, HIF-1, when stabilized by hypoxic conditions, upregulates several genes to promote cell survival in low-oxygen conditions. These include glycolysis enzymes, which allow ATP synthesis in an oxygen-independent manner, and vascular endothelial growth factor (VEGF), which promotes angiogenesis. HIF-1 acts by binding to HIF-responsive elements (HREs) in promoters that generally contain the sequence NCGTG.
Cells were maintained as described previously and seeded into 384-well, clear-bottom plates (Corning 3712) at 15000 cells/well in 32 μl assay medium (Opti-MEM [Invitrogen], 0.5% FBS, 100 U/ml penicillin, 100 μg/ml streptomycin, 0.1 mM non-essential amino acids [NEAA], 1 mM sodium pyruvate, 5 mM HEPES [pH 7.3]). Following a 2 h incubation period, compounds (4 μl) were subsequently added to the cells at 10× concentrations in 5% DMSO and incubated under normal conditions for 30 min. To induce hypoxic conditions, 4 μl of a 2 mM deferoxamine (DFO) solution was added to the cells followed by 24 h incubation under standard assay conditions (as described). Control wells included wells containing only medium (no cells) and wells treated with 0.5% DMSO instead of compound.
Prior to the readout, the Substrate Loading Solution was prepared as described in the manufacturer's protocol and 10 μl added to each well. Following a further 2 h incubation period at room temperature and in the dark, fluorescence was measured at two wavelengths (blue channel: ex. 409 nm, em. 460 nm; green channel: ex. 409 nm, em. 530 nm) on a PerkinElmer Envision HTS. For the analysis, the average signal of the cell-free wells at 460 nm and 530 nm was first subtracted from the blue and green channel data, respectively. The blue/green emission ratios were then calculated for each well, dividing the background-corrected blue emission values by the background-corrected green emission values. IC50 values were determined from these ratios using GraphPad Prism (Prism 5, GraphPad software, Inc.).

T1 sequence (P02550 whole entry): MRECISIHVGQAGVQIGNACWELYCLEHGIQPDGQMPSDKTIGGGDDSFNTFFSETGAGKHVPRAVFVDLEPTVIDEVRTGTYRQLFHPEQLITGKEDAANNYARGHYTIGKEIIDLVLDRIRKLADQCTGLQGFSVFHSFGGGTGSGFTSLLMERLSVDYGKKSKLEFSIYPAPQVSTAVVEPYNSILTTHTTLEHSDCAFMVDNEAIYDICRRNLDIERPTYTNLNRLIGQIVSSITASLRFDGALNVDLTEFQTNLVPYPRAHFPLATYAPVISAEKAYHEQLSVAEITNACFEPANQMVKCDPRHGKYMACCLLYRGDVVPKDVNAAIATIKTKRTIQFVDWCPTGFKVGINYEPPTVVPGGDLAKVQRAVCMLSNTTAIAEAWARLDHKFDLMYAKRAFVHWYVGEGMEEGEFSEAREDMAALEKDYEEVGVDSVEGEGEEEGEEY
T1 sequence (P02554 whole entry): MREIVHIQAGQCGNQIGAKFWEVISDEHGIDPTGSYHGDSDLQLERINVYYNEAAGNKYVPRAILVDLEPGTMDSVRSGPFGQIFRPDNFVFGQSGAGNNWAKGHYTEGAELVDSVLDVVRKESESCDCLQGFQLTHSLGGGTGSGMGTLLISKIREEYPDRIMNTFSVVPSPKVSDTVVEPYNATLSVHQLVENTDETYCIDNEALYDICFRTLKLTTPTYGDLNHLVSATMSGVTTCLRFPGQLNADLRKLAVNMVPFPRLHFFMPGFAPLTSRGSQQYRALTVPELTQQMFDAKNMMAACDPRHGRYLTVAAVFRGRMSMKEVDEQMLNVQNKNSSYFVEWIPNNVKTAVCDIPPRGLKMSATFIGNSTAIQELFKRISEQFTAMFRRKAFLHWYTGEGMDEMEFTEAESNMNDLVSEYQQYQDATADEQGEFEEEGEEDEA

| pEC50 [1] | inhibition at 10 µM [2] | pEC50 [3] | Structure (SMILES) |
| --- | --- | --- | --- |
| > 6.30 | 20 to 50% | > 6.30 | CCc1ccc(S(=O)(=O)Nc2cc(-c3ccc(C#N)s3)ccc2C)s1 [Example 1, 5-Ethyl-thiophene-2-sulfonic acid [5-(5-cyano-thiophen-2-yl)-2-methyl-phenyl]-amide] |
| > 6.30 | < 20% | > 6.30 | COc1ccc(S(=O)(=O)Nc2cc(-c3ccc(C#N)s3)ccc2C)cn1 [Example 2, 6-Methoxy-pyridine-3-sulfonic acid [5-(5-cyano-thiophen-2-yl)-2-methyl-phenyl]-amide] |
